Results as given in patent publication US12473305B2, “Pyrazole boronic acid compound, pharmaceutical composition containing same, and uses thereof” (BEIJING SONGRUN PHARMACEUTICAL TECHNOLOGY CO., LTD., priority 2020, dated 2025).

Experiments:
[1] = Pharmacokinetic test in rats (IV and PO); type: in vivo, male SD rats
Procedure: This experiment includes the PO group and IV group, with three animals in each group. For the PO group, about 0.25 mL of whole blood was collected from orbital venous plexus before administration, and 15 min, 30 min, 1 h, 2 h, 4 h, 7 h and 24 h after administration, and for the IV group, about 0.25 mL of whole blood was collected from orbital venous plexus before administration, and 5 min, 15 min, 30 min, 1 h, 2 h, 4 h, 7 h and 24 h after administration, which were placed in heparin anticoagulant tube. After the blood collection, the blood collection tubes containing anticoagulant agent was inverted several times to fully mix, and placed on wet ice before centrifugation. Within 60 minutes after blood collection, it was centrifuged at 8000 rpm under 2 to 8° C. for 10 minutes to separate red blood cells and obtain plasma samples. The plasma sample was transferred to a cryogenic tube and stored at −75±15° C. until analysis. 50 μL of the plasma sample was taken and added with 5 μL of acetonitrile:water (1:1, v/v), and added with 200 μL of 0.1% formic acid-acetonitrile, centrifuged (12000 rpm, 15 min); the supernatant was diluted in 1:1 with ultrapure water. The plasma drug concentration was analyzed by using LC-MS/MS method. Microsoft EXCEL was used to statistically describe the experimental data with mean, deviation % and standard deviation (SD). The pharmacokinetic parameters were calculated with WinNonlin 8.1 software. The following pharmacokinetic parameters were calculated: CL (clearance), Vd (apparent volume of distribution), T1/2 (elimination half-life time), Cmax (peak concentration), Tmax (peak time), AUC (area under the blood concentration-time curve), and F % (bioavailability).

[2] = Maximum tolerated dose in mice; type: in vivo; settings: for body weight (M ± S.E.): in g (unit assumed)
Procedure: Healthy non-tumor bearing female NOD/SCID mice (purchased from Sipeifu Biotechnology Co., Ltd.) were selected for the Maximum Tolerated Dose (MTD) test. Compound 39 was administered to NOD/SCID mice directly through a single tail vein injection, and the vehicle (0.3 mL DMSO, 0.27 mL Tween-80, 2.43 mL normal saline) was used as the control group. According to the dose of compound 39, the administration group was divided into three groups: low-dose group (10 mg/kg), medium-dose group (20 mg/kg), and high-dose group (30 mg/kg), with seven mice in each group.

[3] = tested on: liver cancer cell line HepG2; assay: CellTiter-Glo tumor cell proliferation, HepG2; type: cell-based, human; settings: Homo sapiens, HepG2, 72 h
Procedure: The effect of compounds on tumor cell proliferation was detected by CellTiter-Glo method. Human melanoma cell line A375, non-small cell lung cancer cell line A549, human lung adenocarcinoma cell line H1299, colorectal cancer cell line HCT116, liver cancer cell line HepG2 and gastric cancer cell line MGC80-3 were cultured in vitro. The cells were collected after growing to the logarithmic growth phase, centrifuged at 1000 rpm for 5 min, and suspended in an appropriate amount of medium after discarding the supernatant, and the cell concentration was adjusted to 2×10^4/mL. The cell suspension was inoculated onto the 384-well cell culture plate, with 50 μL per well. After being cultured in a cell incubator (37° C., 5% CO2) for 24 h, 5 μL of drug diluted by the cell culture medium was added into each well for the treatment group. Each drug was provided in triplicate. After 72 h incubation in the incubator, 20 μL of CellTiter-Glo was added into each well, and the relative luminescence unit (RLU) was measured with Multimode Microplate Reader Varioskan Flash (Thermo Scientific, USA) after placed at 37° C. for 20 min, and compared with the RLU of the control group. SigmaPlot 10.0 software was used to calculate the inhibition rate and IC50 value.

[4] = tested on: HepG2; assay: MTT antitumor spectrum, HepG2; type: cell-based; settings: Homo sapiens, 72 h
Procedure: (§1) The activity of compound 30 was evaluated by MTT method against seven tumor cell models, A549, A375, HCT116, MDA-MB-231, HepG2, PC3 and MCF-7. All cells used in the study were prepared at a concentration of 3.5×10^3 cells/mL, and each […] cell suspension was inoculated on a 96-well microtiter plate for 24 hours (37° C., 5% CO2). Then different concentrations of compound 30 were added, incubated for 72 hours; and for the control group, equivalent concentrations of DMSO (final concentration 0.5%) were added. The number of viable cells was measured by MTT (3-(4,5-dimethylthiazol-2-yl)-diphenyl tetrazolium bromide) method, and the OD value at 492/620 nm was recorded. The IC50 value was calculated by Prism-Graphpad software based on the results of triplicate experiments.

[5] = tested on: MCF-7; assay: MTT antitumor spectrum, MCF-7; type: cell-based; settings: Homo sapiens, MCF7, 72 h
Procedure: as §1

[6] = tested on: PC3; assay: MTT antitumor spectrum, PC3; type: cell-based; settings: Homo sapiens, PC-3, 72 h
Procedure: as §1

[7] = tested on: non-small cell lung cancer cell line A549; assay: CellTiter-Glo tumor cell proliferation, A549; type: cell-based, human; settings: Homo sapiens, A549; CellTiter-Glo, 72 h
Method in brief: (§2)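 Cells seeded at 2×10^4/mL, grown 24 h at 37° C, 5% CO2, then treated in triplicate with medium-diluted compound for 72 h. CellTiter-Glo luminescence read after 20 min at 37° C; inhibition versus untreated control RLU, IC50 calculated.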

[8] = tested on: HCT116; assay: MTT antitumor spectrum, HCT116; type: cell-based; settings: Homo sapiens, HCT-116, 72 h
Procedure: as §1

[9] = tested on: Human melanoma cell line A375; assay: CellTiter-Glo tumor cell proliferation, A375; type: cell-based; settings: Homo sapiens, A-375; CellTiter-Glo, 72 h
Method in brief: as §2

[10] = tested on: A375; assay: MTT antitumor spectrum, A375; type: cell-based; settings: Homo sapiens, A-375, 72 h
Procedure: as §1

[11] = male, SD, rat, IV 1 mg/kg, single, plasma
[12] = male, SD, rat, PO 10 mg/kg, single, plasma

CC(C)C[C@H](NC(=O)Cn1nc(-c2cccc(OCCN3CCN(c4ccccc4)CC3)c2)cc1-c1ccccc1)B(O)O.Cl [Compound 39, (R)-(3-methyl-1-(2-(5-phenyl-3-(3-(2-(4-phenylpiperazin-1-yl)ethoxy)phenyl)-1H-pyrazol-1-yl)acetamido)butyl)boronic acid hydrochloride]
clearance (in words) ([1]; IV 1 mg/kg): medium clearance | CL_obs ([1]; IV 1 mg/kg, single, plasma, hydrochloride, 1 mg/kg): 21.0 ± 3.4 mL/min/kg | distribution in vivo (in words) ([1]; IV 1 mg/kg, Vd higher than total liquid volume of SD rats): widely distributed in vivo | absorption (in words) ([1]; PO 10 mg/kg): rapid absorption | bioavailability ([1]; male, SD, rat, plasma, PO 10 mg/kg vs IV 1 mg/kg, read-out: F (bioavailability)): 2.42 ± 1.91% | AUC(0-inf) [1, 11]: 807 ± 123 ng·h/mL | AUC(0-t) [1, 11]: 767 ± 117 ng·h/mL | C0 [1, 11]: 846 ± 183 ng/mL | Cmax [1, 11]: 671 ± 124 ng/mL | Tmax [1, 11]: 4.98 min | Vd [1, 11]: 13.9 ± 2.8 L/kg | half-life [1, 11]: 458 ± 18 min | AUC(0-inf) [1, 12]: 191 ± 147 ng·h/mL | AUC(0-t) [1, 12]: 186 ± 147 ng·h/mL | Cmax [1, 12]: 74.8 ± 82 ng/mL | Tmax [1, 12]: 19.8 ± 8.4 min | half-life [1, 12]: 97.8 ± 21.6 min | body weight (M ± S.E.) ([2]; High-dose 30 mg/kg single tail vein injection, Day 0 (day before administration)): 24.2 ± 0.5 | body weight (M ± S.E.) ([2]; High-dose 30 mg/kg single tail vein injection, Day 1): 24.0 ± 0.5 | body weight (M ± S.E.) ([2]; High-dose 30 mg/kg single tail vein injection, Day 2): 22.4 ± 0.6 | body weight (M ± S.E.) ([2]; High-dose 30 mg/kg single tail vein injection, Day 3): 22.5 ± 0.6 | body weight (M ± S.E.) ([2]; High-dose 30 mg/kg single tail vein injection, Day 4): 22.7 ± 0.7 | body weight (M ± S.E.) ([2]; High-dose 30 mg/kg single tail vein injection, Day 5): 22.9 ± 0.6 | body weight (M ± S.E.) ([2]; High-dose 30 mg/kg single tail vein injection, Day 6): 22.5 ± 0.6 | body weight (M ± S.E.) ([2]; High-dose 30 mg/kg single tail vein injection, Day 7): 23.1 ± 0.4 | body weight (M ± S.E.) ([2]; Low-dose 10 mg/kg single tail vein injection, Day 0 (day before administration)): 24.2 ± 0.8 | body weight (M ± S.E.) ([2]; Low-dose 10 mg/kg single tail vein injection, Day 1): 24.5 ± 0.8 | body weight (M ± S.E.) ([2]; Low-dose 10 mg/kg single tail vein injection, Day 2): 23.3 ± 1.1 | body weight (M ± S.E.) ([2]; Low-dose 10 mg/kg single tail vein injection, Day 3): 23.4 ± 1.0 | body weight (M ± S.E.) ([2]; Low-dose 10 mg/kg single tail vein injection, Day 4): 23.7 ± 1.1 | body weight (M ± S.E.) ([2]; Low-dose 10 mg/kg single tail vein injection, Day 5): 24.1 ± 1.0 | body weight (M ± S.E.) ([2]; Low-dose 10 mg/kg single tail vein injection, Day 6): 24.4 ± 0.8 | body weight (M ± S.E.) ([2]; Low-dose 10 mg/kg single tail vein injection, Day 7): 24.7 ± 0.7 | body weight (M ± S.E.) ([2]; Medium-dose 20 mg/kg single tail vein injection, Day 0 (day before administration)): 24.7 ± 0.2 | body weight (M ± S.E.) ([2]; Medium-dose 20 mg/kg single tail vein injection, Day 1): 24.1 ± 0.5 | body weight (M ± S.E.) ([2]; Medium-dose 20 mg/kg single tail vein injection, Day 2): 22.8 ± 0.4 | body weight (M ± S.E.) ([2]; Medium-dose 20 mg/kg single tail vein injection, Day 3): 22.7 ± 0.4 | body weight (M ± S.E.) ([2]; Medium-dose 20 mg/kg single tail vein injection, Day 4): 22.8 ± 0.5 | body weight (M ± S.E.) ([2]; Medium-dose 20 mg/kg single tail vein injection, Day 5): 23.3 ± 0.6 | body weight (M ± S.E.) ([2]; Medium-dose 20 mg/kg single tail vein injection, Day 6): 23.7 ± 0.7 | body weight (M ± S.E.) ([2]; Medium-dose 20 mg/kg single tail vein injection, Day 7): 24.0 ± 0.7 | average body weight change of mice ([2]; doses of 30 mg/kg or less, single tail vein injection): not more than 5% | MTD at 7 days ([2]; female, NOD/SCID, mouse, in vivo, single tail vein injection, 7 days observation, read-out: dose safe to be administered (maximum tolerated dose test)): ≤ 30 mg/kg | IC50 [3]: 0.054 µM

CC(C)C[C@H](NC(=O)Cn1nc(-c2cccc(OCCN3CCOCC3)c2)cc1-c1ccccc1)B(O)O.Cl [Compound 30, (R)-(3-methyl-1-(2-(3-(3-(2-morpholinoethoxy)phenyl)-5-phenyl-1H-pyrazol-1-yl)-acetamido)butyl)boronic acid hydrochloride]
IC50 [4]: 1.08 µM | IC50 [5]: 0.69 µM | IC50 [6]: 0.82 µM | IC50 [7]: 3.05 µM | IC50 [8]: 0.63 µM | IC50 [9]: 0.822 µM | IC50 [10]: 0.82 µM
